The source of these data is patent publication US20130289471A1, “GAS BASED WOUND AND TISSUE THERAPEUTICS” (Virginia Commonwealth University, priority 2008, published 2013).

A short description of series [1]: Physical properties of F-tert-butylcyclohexane. Type of series: physicochemical. Further details: Kinematic Viscosity: unit not given here. An excerpt: Oxycyte® is based on the perfluorocarbon F-tert-butylcyclohexane, a saturated alicyctic PFC (molecular formula C10F20) and can be used as a PFC composition in the methods and uses described herein. Physical properties of F-tert-butylcyclohexane are as follows: […]

Series [2] in a line: Lipophilicity of the preferred PFC (statement). It counts as physicochemical. An excerpt: Being that the PFCs are slightly lipophilic at body temperature and would help in the transport of oxygen into and removal of carbon dioxide from the skin tissue, PFCs can accelerate the healing process of a wound in a tissue.

`FC(F)(F)C(C(F)(F)F)(C(F)(F)F)C1(F)C(F)(F)C(F)(F)C(F)(F)C(F)(F)C1(F)F` [F-tert-butylcyclohexane, perfluoro-tert-butylcyclohexane]: in series [1], the Density came to 1.97 g/mL and the “Kinematic Viscosity” value is listed as 5.378. In addition, the “Vapor Pressure @ 25° C.” value in series [1] (25° C.) is 3.8 mmHg. Besides, the “Vapor Pressure @ 37° C.” value in series [1] (37° C.) amounted to 4.4 mmHg. The lipophilicity entry in series [2] (at body temperature) was “only slightly lipophilic”. Further, the lipophilicity entry in series [2] (at room temperature) is “not lipophilic”.
